Earlier results, collected in patent US20030152643A1, “Combination of an alpha-adrenergic antagonist and a nitrogen oxide donor for treating female sexual dysfunctions” (priority 1998, published 2003).

Tested on: erectile dysfunctions
Conditions: administration in men; Zorgniotti and Lizza 1994

N=C(N)NCCC[C@H](N)C(=O)O [L-arginine]
effect on erectile dysfunctions in men: favorable effect on erectile dysfunctions in certain cases
